According to ChEMBL document CHEMBL4813993, “Design and synthesis of diosgenin derivatives as apoptosis inducers through mitochondria-related pathways” (Eur J Med Chem, 2021):
Calls of active or inactive are those of the source. No cut-off for these calls is given here.

Key:
K562 [1] = experiment: Induction of apoptosis in human K562 cells assessed as early apoptotic cells at 12 uM incubated for 48 hrs by annexin V-FITC/PI staining based flow cytometry (reference value: 0.32 %); format: functional
K562 [2] = experiment: Induction of apoptosis in human K562 cells assessed as decrease in cell density at 3 to 12 uM incubated for 48 hrs by Hoechst 33342/PI staining based fluorescence microscopic analysis; format: functional; details: dose 3-12 µM
K562 [3] = experiment: Induction of apoptosis in human K562 cells assessed as increase in cleaved caspase 9 gene expression at 3 to 12 uM after 48 hrs by SYBR green dye-based qRT-PCR analysis; format: functional, cell-based; details: dose 3-12 µM
K562 [4] = experiment: Induction of ROS generation in human K562 cells at 6 uM incubated for 48 hrs by DCFH-DA staining-based flow cytometry (reference value: 3.68 %); format: functional
K562 [5] = experiment: Potency index, ratio of 5-FU IC50 to test compound IC50 for cytotoxicity against human K562 cells assessed as inhibition of cell growth incubated for 48 hrs by CCK-8 assay; format: functional
K562 [6] = experiment: Induction of apoptosis in human K562 cells assessed as increase in cleaved caspase 3 protein expression at 3 to 12 uM after 48 hrs by Western blot analysis; format: functional, cell-based; details: dose 3-12 µM
HepG2 = experiment: Cytotoxicity against human HepG2 cells assessed as inhibition of cell growth incubated for 48 hrs by CCK-8 assay; format: functional, cell-based; details: HepG2, 48 h
K562 [7] = experiment: Induction of mitochondrial membrane potential loss in human K562 cells assessed as cell population with mitochondrial membrane potential collapse at 12 uM after 48 hrs by JC1 dye-based flow cytometry analysis (reference value: 2.75%); format: functional
K562 [8] = experiment: Induction of apoptosis in human K562 cells assessed as early apoptotic cells at 6 uM incubated for 48 hrs by annexin V-FITC/PI staining based flow cytometry (reference value: 0.32 %); format: functional
K562 [9] = experiment: Induction of apoptosis in human K562 cells assessed as increase in Bax protein expression at 3 to 12 uM after 48 hrs by Western blot analysis; format: functional, cell-based; details: dose 3-12 µM
T-24 = experiment: Cytotoxicity against human T24 cells assessed as inhibition of cell growth incubated for 48 hrs by CCK-8 assay; format: functional, cell-based; details: T-24, 48 h
K562 [10] = experiment: Induction of mitochondrial membrane potential loss in human K562 cells assessed as cell population with mitochondrial membrane potential collapse at 6 uM after 48 hrs by JC1 dye-based flow cytometry analysis (reference value: 2.75%); format: functional
K562 [11] = experiment: Induction of apoptosis in human K562 cells assessed as late apoptotic cells at 12 uM incubated for 48 hrs by annexin V-FITC/PI staining based flow cytometry (reference value: 0.11 %); format: functional
K562 [12] = experiment: Induction of apoptosis in human K562 cells assessed as decrease in Bcl-2 gene expression after 48 hrs by SYBR green dye-based qRT-PCR analysis; format: functional, cell-based; details: dose 3-12 µM
K562 [13] = experiment: Induction of apoptosis in human K562 cells assessed as late apoptotic cells at 6 uM incubated for 48 hrs by annexin V-FITC/PI staining based flow cytometry (reference value: 0.11 %); format: functional
K562 [14] = experiment: Induction of apoptosis in human K562 cells assessed as chromatin condensation at 3 to 12 uM incubated for 48 hrs by Hoechst 33342/PI staining based fluorescence microscopic analysis; format: functional, cell-based; details: dose 3-12 µM
K562 [15] = experiment: Induction of apoptosis in human K562 cells assessed as decrease in Bcl-2 protein expression after 48 hrs by Western blot analysis; format: functional, cell-based; details: dose 3-12 µM
A549 [16] = experiment: Cytotoxicity against human A549 cells assessed as inhibition of cell growth incubated for 48 hrs by CCK-8 assay; format: functional, cell-based; details: A549, 48 h
K562 [17] = experiment: Induction of apoptosis in human K562 cells assessed as late apoptotic cells at 3 uM incubated for 48 hrs by annexin V-FITC/PI staining based flow cytometry (reference value: 0.11 %); format: functional
K562 [18] = experiment: Induction of mitochondrial membrane potential loss in human K562 cells assessed as cell population with intact mitochondrial membrane potential at 6 uM after 48 hrs by JC1 dye-based flow cytometry analysis (reference value: 96.48%); format: functional
K562 [19] = experiment: Induction of mitochondrial membrane potential loss in human K562 cells assessed as cell population with intact mitochondrial membrane potential at 3 uM after 48 hrs by JC1 dye-based flow cytometry analysis (reference value: 96.48%); format: functional
K562 [20] = experiment: Induction of ROS generation in human K562 cells at 12 uM incubated for 48 hrs by DCFH-DA staining-based flow cytometry (reference value: 3.68 %); format: functional
K562 [21] = experiment: Induction of apoptosis in human K562 cells assessed as increase in Bax gene expression at 3 to 12 uM after 48 hrs by SYBR green dye-based qRT-PCR analysis; format: functional, cell-based; details: dose 3-12 µM
K562 [22] = experiment: Induction of apoptosis in human K562 cells assessed as increase in cytochrome c protein expression after 48 hrs by Western blot analysis; format: functional, cell-based; details: dose 3-12 µM
K562 [23] = experiment: Induction of apoptosis in human K562 cells assessed as nuclear fragmentation at 3 to 12 uM incubated for 48 hrs by Hoechst 33342/PI staining based fluorescence microscopic analysis; format: functional, cell-based; details: dose 3-12 µM
K562 [24] = experiment: Induction of apoptosis in human K562 cells assessed as increase in cleaved PARP protein expression at 3 to 12 uM after 48 hrs by Western blot analysis; format: functional, cell-based; details: dose 3-12 µM
K562 [25] = experiment: Cytotoxicity against human K562 cells assessed as inhibition of cell growth incubated for 48 hrs by CCK-8 assay; format: functional, cell-based; details: K562, 48 h
K562 [26] = experiment: Potency index, ratio of diosgenin IC50 to test compound IC50 for cytotoxicity against human K562 cells assessed as inhibition of cell growth incubated for 48 hrs by CCK-8 assay; format: functional
K562 [27] = experiment: Induction of mitochondrial membrane potential loss in human K562 cells assessed as cell population with mitochondrial membrane potential collapse at 3 uM after 48 hrs by JC1 dye-based flow cytometry analysis (reference value: 2.75%); format: functional
MCF7 = experiment: Cytotoxicity against human MCF7 cells assessed as inhibition of cell growth incubated for 48 hrs by CCK-8 assay; format: functional, cell-based; details: MCF7, 48 h
K562 [28] = experiment: Induction of apoptosis in human K562 cells assessed as increase in number of broken cells at 3 to 12 uM incubated for 48 hrs by light microscopic analysis; format: functional, cell-based; details: dose 3-12 µM
K562 [29] = experiment: Induction of mitochondrial membrane potential loss in human K562 cells assessed as cell population with intact mitochondrial membrane potential at 12 uM after 48 hrs by JC1 dye-based flow cytometry analysis (reference value: 96.48%); format: functional
K562 [30] = experiment: Induction of apoptosis in human K562 cells assessed as increase in cleaved caspase 9 protein expression at 3 to 12 uM after 48 hrs by Western blot analysis; format: functional, cell-based; details: dose 3-12 µM
K562 [31] = experiment: Induction of apoptosis in human K562 cells assessed as decrease in cell density at 3 to 12 uM incubated for 48 hrs by light microscopic analysis; format: functional, cell-based; details: dose 3-12 µM
A549 [32] = experiment: Potency index, ratio of diosgenin IC50 to test compound IC50 for cytotoxicity against human A549 cells assessed as inhibition of cell growth incubated for 48 hrs by CCK-8 assay; format: functional
K562 [33] = experiment: Induction of apoptosis in human K562 cells assessed as increase in cleaved PARP gene expression at 3 to 12 uM after 48 hrs by SYBR green dye-based qRT-PCR analysis; format: functional, cell-based; details: dose 3-12 µM
K562 [34] = experiment: Induction of apoptosis in human K562 cells assessed as early apoptotic cells at 3 uM incubated for 48 hrs by annexin V-FITC/PI staining based flow cytometry (reference value: 0.32 %); format: functional
K562 [35] = experiment: Induction of apoptosis in human K562 cells assessed as increase in cleaved caspase 3 gene expression at 3 to 12 uM after 48 hrs by SYBR green dye-based qRT-PCR analysis; format: functional, cell-based; details: dose 3-12 µM
K562 [36] = experiment: Induction of ROS generation in human K562 cells at 3 uM incubated for 48 hrs by DCFH-DA staining-based flow cytometry (reference value: 3.68 %); format: functional
MKN-45 = experiment: Cytotoxicity against human MNK45 cells assessed as inhibition of cell growth incubated for 48 hrs by CCK-8 assay; format: functional, cell-based; details: MKN-45, 48 h

SMILES: CC(=O)O[C@H]1CC[C@@]2(C)C(=CC[C@H]3[C@@H]4C[C@@H]5O[C@H](CC[C@@H](C)COC(=O)[C@@H](N)Cc6c[nH]c7ccccc67)[C@@H](C)[C@@H]5[C@@]4(C)CC[C@@H]32)C1
- Activity (K562 [1]): 21.45%
- Activity (K562 [2]): Active
- Activity (K562 [3]): Active
- Activity (K562 [4]): 22.26%
- Ratio IC50 (K562 [5]): 4.3
- Activity (K562 [6]): Active
- IC50 (HepG2): 12.7 µM
- Activity (K562 [7]): 67.81%
- Activity (K562 [8]): 11.42%
- Activity (K562 [9]): Active
- IC50 (T-24): 6.34 µM
- Activity (K562 [10]): 21.23%
- Activity (K562 [11]): 18.85%
- Activity (K562 [12]): Dose-Dependent Effect
- Activity (K562 [13]): 14.13%
- Activity (K562 [14]): Active
- Activity (K562 [15]): Dose-Dependent Effect
- IC50 (A549 [16]): 7.82 µM
- Activity (K562 [17]): 9.13%
- Activity (K562 [18]): 75.88%
- Activity (K562 [19]): 90.01%
- Activity (K562 [20]): 34.25%
- Activity (K562 [21]): Active
- Activity (K562 [22]): Dose-Dependent Effect
- Activity (K562 [23]): Active
- Activity (K562 [24]): Active
- IC50 (K562 [25]): 4.41 µM
- Ratio IC50 (K562 [26]): 6.8
- Activity (K562 [27]): 8.78%
- IC50 (MCF7): 11.3 µM
- Activity (K562 [28]): Active
- Activity (K562 [29]): 27.71%
- Activity (K562 [30]): Active
- Activity (K562 [31]): Active
- Ratio IC50 (A549 [32]): 4.2
- Activity (K562 [33]): Active
- Activity (K562 [34]): 4.78%
- Activity (K562 [35]): Active
- Activity (K562 [36]): 16.85%
- IC50 (MKN-45): 16.2 µM
